# Laboratory results as given in ChEMBL document CHEMBL5465560, “Selectivity Literature for EUbOPEN Chemogenomic Library” (2024).
# Columns and labels:
# [1] = biological target: Macrophage-stimulating protein receptor (Homo sapiens, UniProt Q04912); test: Selectivity interaction (KinomeScan (DiscoverX)) EUB0000695a MST1R; conditions: at 100 nM
# [2] = biological target: T1, Inhibitor of nuclear factor kappa-B kinase subunit epsilon (Homo sapiens) (UniProt Q14164); test: Selectivity interaction (Kinase panel (Z-LYTE Assay)) EUB0001632a IKBKE; conditions: at 10 µM
# T1 sequence (whole entry): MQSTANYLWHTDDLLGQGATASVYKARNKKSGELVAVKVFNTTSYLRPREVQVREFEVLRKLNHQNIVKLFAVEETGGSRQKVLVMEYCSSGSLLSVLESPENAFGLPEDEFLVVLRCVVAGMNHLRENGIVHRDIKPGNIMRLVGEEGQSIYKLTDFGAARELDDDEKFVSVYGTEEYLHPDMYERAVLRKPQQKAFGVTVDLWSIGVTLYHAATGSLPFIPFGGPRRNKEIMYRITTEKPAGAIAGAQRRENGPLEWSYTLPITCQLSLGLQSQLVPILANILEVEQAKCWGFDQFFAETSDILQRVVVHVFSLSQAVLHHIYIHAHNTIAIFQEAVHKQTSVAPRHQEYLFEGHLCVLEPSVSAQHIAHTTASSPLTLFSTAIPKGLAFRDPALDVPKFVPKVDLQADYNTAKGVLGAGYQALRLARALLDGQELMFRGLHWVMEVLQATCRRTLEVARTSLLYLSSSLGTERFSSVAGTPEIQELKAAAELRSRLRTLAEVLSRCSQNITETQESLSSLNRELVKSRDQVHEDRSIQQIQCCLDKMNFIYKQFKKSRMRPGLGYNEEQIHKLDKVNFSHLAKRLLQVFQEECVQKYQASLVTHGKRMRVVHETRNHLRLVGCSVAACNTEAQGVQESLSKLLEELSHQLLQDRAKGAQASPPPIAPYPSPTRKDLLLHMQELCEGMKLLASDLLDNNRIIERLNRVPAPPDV
# [3] = biological target: Serine/threonine-protein kinase 35 (Homo sapiens) (UniProt Q8TDR2); conditions: at 10 µM
# [4] = biological target: Serine/threonine-protein kinase PAK 2 (Homo sapiens) (UniProt Q13177); test: Selectivity interaction (Kinase screening (Nanosyn)) EUB0000604a PAK2
# [5] = biological target: T2, Serine/threonine-protein kinase RIO1 (Homo sapiens) (UniProt Q9BRS2); test: Selectivity interaction (KINOMEscan (DiscoverX)) EUB0001868a RIOK1; conditions: at 1 µM
# T2 sequence (whole entry): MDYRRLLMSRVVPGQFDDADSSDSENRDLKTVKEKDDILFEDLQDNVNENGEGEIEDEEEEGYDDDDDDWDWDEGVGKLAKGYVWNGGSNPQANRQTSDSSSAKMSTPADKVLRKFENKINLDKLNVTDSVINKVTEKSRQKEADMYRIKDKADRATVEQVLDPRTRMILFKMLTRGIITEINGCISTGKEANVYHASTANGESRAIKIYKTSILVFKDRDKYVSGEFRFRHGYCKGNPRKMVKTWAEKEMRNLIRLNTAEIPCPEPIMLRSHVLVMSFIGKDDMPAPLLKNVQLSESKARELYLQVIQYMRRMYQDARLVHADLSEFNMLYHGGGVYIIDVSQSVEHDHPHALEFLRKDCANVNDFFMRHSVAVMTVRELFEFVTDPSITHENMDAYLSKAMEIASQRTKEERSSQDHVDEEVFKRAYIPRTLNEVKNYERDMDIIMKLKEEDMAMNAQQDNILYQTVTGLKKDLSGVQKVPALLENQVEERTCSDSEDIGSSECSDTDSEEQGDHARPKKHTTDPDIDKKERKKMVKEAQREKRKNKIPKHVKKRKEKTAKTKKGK
# [6] = biological target: Calcium/calmodulin-dependent protein kinase type II subunit alpha (Homo sapiens, UniProt Q9UQM7); test: Selectivity interaction (ProQinase) EUB0000171b CAMK2A
# [7] = biological target: T3, Hormonally up-regulated neu tumor-associated kinase (Homo sapiens) (UniProt P57058); test: Selectivity interaction (KinomeScan (DiscoverX)) EUB0000607a HUNK; conditions: at 10 µM
# T3 sequence (whole entry): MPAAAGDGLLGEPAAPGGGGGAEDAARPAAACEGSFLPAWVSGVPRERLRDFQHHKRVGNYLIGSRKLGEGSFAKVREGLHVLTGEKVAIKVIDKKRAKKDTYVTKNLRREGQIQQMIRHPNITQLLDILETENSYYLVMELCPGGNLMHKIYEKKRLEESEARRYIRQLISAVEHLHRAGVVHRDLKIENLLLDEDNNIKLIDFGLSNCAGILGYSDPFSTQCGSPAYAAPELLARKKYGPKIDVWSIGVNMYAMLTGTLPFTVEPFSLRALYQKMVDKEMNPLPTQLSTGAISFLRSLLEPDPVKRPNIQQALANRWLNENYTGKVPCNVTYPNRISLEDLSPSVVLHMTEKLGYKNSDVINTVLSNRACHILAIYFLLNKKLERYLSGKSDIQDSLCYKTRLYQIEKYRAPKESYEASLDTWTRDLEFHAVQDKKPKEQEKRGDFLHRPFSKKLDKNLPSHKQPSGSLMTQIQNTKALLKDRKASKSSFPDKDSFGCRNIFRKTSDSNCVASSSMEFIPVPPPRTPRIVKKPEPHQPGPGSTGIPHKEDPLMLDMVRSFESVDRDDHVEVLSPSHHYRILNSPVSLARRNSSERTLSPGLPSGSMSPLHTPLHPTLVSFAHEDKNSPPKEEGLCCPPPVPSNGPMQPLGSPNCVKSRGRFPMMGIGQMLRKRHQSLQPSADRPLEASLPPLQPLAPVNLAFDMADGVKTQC
# Calcium/calmodulin-dependent protein kinase type II subunit alpha, sequence (Q9UQM7 whole entry): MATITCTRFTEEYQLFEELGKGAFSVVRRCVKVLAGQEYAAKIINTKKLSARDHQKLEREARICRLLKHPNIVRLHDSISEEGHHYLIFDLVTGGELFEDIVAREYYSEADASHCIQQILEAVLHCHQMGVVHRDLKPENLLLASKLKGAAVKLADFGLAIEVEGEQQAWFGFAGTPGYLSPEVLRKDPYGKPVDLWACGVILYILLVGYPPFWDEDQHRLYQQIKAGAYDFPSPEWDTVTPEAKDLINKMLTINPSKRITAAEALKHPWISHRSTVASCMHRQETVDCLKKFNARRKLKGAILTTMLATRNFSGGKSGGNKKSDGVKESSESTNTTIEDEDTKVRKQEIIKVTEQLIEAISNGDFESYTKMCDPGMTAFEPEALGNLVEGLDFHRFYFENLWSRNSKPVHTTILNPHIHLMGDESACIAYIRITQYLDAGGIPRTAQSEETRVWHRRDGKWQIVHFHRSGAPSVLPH
# Serine/threonine-protein kinase 35 (Homo sapiens), sequence (Q8TDR2 whole entry): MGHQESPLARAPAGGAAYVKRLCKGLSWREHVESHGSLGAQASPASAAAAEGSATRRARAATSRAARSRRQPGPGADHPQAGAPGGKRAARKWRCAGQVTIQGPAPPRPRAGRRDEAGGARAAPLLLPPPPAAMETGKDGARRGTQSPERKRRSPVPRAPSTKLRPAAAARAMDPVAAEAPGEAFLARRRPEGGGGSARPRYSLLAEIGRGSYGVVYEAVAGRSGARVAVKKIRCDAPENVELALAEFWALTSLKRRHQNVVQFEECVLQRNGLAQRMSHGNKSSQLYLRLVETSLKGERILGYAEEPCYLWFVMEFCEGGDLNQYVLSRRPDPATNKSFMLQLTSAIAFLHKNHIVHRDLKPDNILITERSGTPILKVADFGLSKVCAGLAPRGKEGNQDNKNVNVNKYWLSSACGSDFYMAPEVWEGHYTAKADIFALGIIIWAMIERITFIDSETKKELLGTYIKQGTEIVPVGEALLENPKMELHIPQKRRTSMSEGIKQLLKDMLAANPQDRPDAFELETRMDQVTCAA
# Macrophage-stimulating protein receptor, sequence (Q04912 25-304 limits assumed): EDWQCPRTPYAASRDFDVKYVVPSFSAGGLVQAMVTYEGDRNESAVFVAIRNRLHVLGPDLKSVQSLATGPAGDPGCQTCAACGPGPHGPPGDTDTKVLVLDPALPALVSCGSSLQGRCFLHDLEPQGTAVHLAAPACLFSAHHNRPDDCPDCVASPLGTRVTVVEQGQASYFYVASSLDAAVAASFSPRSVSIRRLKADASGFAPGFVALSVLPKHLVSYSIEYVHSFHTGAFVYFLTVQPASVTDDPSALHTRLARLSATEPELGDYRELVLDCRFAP
# Macrophage-stimulating protein receptor, sequence (Q04912 310-1400 limits assumed): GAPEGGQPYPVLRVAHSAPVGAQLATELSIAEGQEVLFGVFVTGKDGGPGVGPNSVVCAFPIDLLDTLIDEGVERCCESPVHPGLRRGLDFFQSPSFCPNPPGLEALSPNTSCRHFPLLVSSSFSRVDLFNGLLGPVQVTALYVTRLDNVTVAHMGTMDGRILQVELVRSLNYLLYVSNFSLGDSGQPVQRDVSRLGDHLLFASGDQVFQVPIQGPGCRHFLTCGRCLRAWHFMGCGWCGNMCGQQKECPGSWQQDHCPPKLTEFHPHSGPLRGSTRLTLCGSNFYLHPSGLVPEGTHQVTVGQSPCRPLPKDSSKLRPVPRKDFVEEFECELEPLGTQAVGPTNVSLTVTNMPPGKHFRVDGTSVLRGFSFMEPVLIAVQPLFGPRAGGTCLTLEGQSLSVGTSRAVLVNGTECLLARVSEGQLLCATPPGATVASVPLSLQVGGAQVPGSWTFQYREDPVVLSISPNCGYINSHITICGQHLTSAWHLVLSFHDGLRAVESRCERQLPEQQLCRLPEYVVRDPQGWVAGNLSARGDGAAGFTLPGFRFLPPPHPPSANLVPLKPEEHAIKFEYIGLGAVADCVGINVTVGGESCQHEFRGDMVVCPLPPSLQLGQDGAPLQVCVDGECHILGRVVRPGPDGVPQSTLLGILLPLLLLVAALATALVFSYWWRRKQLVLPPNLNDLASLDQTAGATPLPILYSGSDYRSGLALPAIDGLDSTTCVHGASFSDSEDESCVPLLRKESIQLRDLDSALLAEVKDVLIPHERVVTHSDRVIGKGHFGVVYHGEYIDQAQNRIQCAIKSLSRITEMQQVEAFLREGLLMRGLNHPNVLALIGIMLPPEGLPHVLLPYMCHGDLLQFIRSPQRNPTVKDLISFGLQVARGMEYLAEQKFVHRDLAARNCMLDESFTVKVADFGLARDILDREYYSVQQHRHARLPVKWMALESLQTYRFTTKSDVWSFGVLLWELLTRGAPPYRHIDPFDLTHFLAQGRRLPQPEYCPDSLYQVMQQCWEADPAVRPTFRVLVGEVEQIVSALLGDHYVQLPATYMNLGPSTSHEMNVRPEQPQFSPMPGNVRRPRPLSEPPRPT
# Serine/threonine-protein kinase PAK 2 (Homo sapiens), sequence (Q13177 whole entry): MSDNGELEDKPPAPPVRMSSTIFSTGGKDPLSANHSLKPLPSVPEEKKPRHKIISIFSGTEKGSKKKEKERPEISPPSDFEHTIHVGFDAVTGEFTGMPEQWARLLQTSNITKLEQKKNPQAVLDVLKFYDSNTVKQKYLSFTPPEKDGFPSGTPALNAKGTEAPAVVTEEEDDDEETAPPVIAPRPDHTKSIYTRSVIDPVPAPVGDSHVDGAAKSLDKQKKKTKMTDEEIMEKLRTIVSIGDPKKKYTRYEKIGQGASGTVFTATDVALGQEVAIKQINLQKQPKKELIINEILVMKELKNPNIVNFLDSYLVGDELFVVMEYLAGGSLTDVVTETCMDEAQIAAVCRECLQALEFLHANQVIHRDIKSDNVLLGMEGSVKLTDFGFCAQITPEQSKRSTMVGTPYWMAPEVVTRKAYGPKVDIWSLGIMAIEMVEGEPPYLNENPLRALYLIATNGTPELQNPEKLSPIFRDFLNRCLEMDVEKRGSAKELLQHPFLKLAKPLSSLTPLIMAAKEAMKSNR
smiles,measurement,setting,value
Cc1cc(F)c(C(=O)Nc2cccc(-c3nncn3C(C)C)n2)cc1-n1cnc(C2CC2)c1,% of control,[1],100%
Cn1cc(-n2cnc3c(NCc4nc5cc(Cl)c(Cl)cc5[nH]4)nc(N4CCOCC4)nc32)cn1,% of control,[2],2.49%
Cc1cc([C@@H](C)Nc2ccccc2C(=O)O)c2nc(N3CCOCC3)cc(=O)n2c1 [AZD-6482],% of control,[3],95%
Cc1cnc(Nc2ccc(F)cc2Cl)nc1-c1c[nH]c(C(=O)N[C@H](CO)c2cccc(Cl)c2)c1,% of inhibition,[4],0%
Cc1cc(-c2ccnc(Nc3cnn(C)c3)n2)ccc1CNC(=O)N1CC(OC(C)C)C1,% of control,[5],17%
C=CC(=O)Nc1cccc(C(=O)Nc2ccc(Nc3cc(-c4[nH]c(SC)nc4C)ccn3)cc2)c1,% of control,[6]; at 1 µM,90%
same,% of control,[6]; at 5 µM,90%
CNC(=O)Nc1ccc(-c2nc(N3CC4CCC(C3)O4)c3cnn(C4CCC5(CC4)OCCO5)c3n2)cc1,% of control,[7],100%
